12 compounds from PubChem BioAssay (NCI) can be followed below.

Test systems include RXF 393 renal; SF-539 CNS; NCI-H522 lung; ACHN renal; MOLT-4 leukemia; HCT-116 colon; UACC-257 melanoma; IGROV1 ovarian; OVCAR-3 ovarian; BT-549 breast.
Common to all, as to test: growth of human tumour cells (NCI), 48 h

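Values below derive from 48-hour exposures of cells grown in 96-well plates, with endpoints linearly interpolated between the two concentrations bracketing the appropriate inhibition level. At the GI50, growth is halved. TGI: total growth inhibition.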

Regarding `CC(=O)CC(=O)CCC(=O)O`, the TGI with RXF 393 renal, in the test with SF-539 CNS, in the test with NCI-H522 lung, with ACHN renal, in the test with MOLT-4 leukemia and in the test on HCT-116 colon was more than 100 µM in each case. The TGI with UACC-257 melanoma and with IGROV1 ovarian was more than 100 µM each time.

For the compound `CC(=O)/C(=C\c1ccc(Cl)c(Cl)c1)C(=O)C(C)CN(C)C` (centres undefined), the TGI is 16.1 µM in the test on OVCAR-3 ovarian; 13.4 µM in the test on SF-539 CNS; 17.9 µM in the test on ACHN renal; 6.6 µM in the test on MOLT-4 leukemia; 8.92 µM in the test with BT-549 breast; 6.79 µM with HCT-116 colon. Besides, the TGI in the test with UACC-257 melanoma came to 23.7 µM; with IGROV1 ovarian, 4.88 µM.

`C#CCC1(C(=O)OCC)C(=O)c2ccccc2N(C)C1=O` (centres undefined): the TGI in the test with OVCAR-3 ovarian was more than 100 µM; with SF-539 CNS, more than 100 µM; in the test on NCI-H522 lung, 27.3 µM; with ACHN renal it was more than 100 µM; with MOLT-4 leukemia, more than 100 µM; in the test with IGROV1 ovarian it was more than 100 µM.

For `CC(C)(C)OC(=O)n1cc(C2CN(O)C(=O)C23CCC(=O)N3Cc2ccccc2)c2ccccc21` (centres undefined), the TGI is more than 100 µM in the test with RXF 393 renal; more than 100 µM in the test on OVCAR-3 ovarian; more than 100 µM in the test on SF-539 CNS; 31.7 µM in the test on NCI-H522 lung; more than 100 µM with MOLT-4 leukemia; more than 100 µM with HCT-116 colon. For the same compound, the results for the TGI with UACC-257 melanoma and with IGROV1 ovarian were more than 100 µM and 48.5 µM, respectively.

On to `CCC(CC(C)C)Nc1ccc(NC(CC)CC(C)C)cc1` (centres undefined), for which the GI50 in the test on RXF 393 renal is 14.9 µM; with OVCAR-3 ovarian, 13.3 µM; in the test on SF-539 CNS, 17.1 µM; in the test on NCI-H522 lung, 3.82 µM; in the test with ACHN renal it was 15.3 µM; in the test on MOLT-4 leukemia, 17.8 µM. The GI50 was 14.1 µM in the test with HCT-116 colon, 13.3 µM in the test with UACC-257 melanoma and 27.1 µM with IGROV1 ovarian. The TGI is 28.1 µM in the test on RXF 393 renal; 26 µM with OVCAR-3 ovarian; 33 µM in the test with SF-539 CNS; 15.1 µM in the test on NCI-H522 lung; 28.5 µM in the test with ACHN renal; 44.5 µM in the test on MOLT-4 leukemia. The TGI in the test with HCT-116 colon stood at 28.3 µM; with UACC-257 melanoma it was 28.4 µM; in the test with IGROV1 ovarian it was 78.7 µM.

On to `O=C(/C=C/c1cccs1)c1ccccc1Cl`, for which the TGI was 23.7 µM in the test on RXF 393 renal; 28.2 µM in the test with OVCAR-3 ovarian; more than 69.1 µM in the test on SF-539 CNS; 15 µM in the test with NCI-H522 lung; 29.4 µM with ACHN renal; more than 23.4 µM in the test on MOLT-4 leukemia. Further, the figures for the TGI in the test with HCT-116 colon, in the test on UACC-257 melanoma and with IGROV1 ovarian were 25.7 µM, 34.2 µM and more than 65 µM, respectively.

In the case of `Cc1ccc(S(=O)(=O)N(CC(O)COc2ccccc2)c2ccc(F)cc2F)cc1` (centres undefined), the TGI in the test on RXF 393 renal is 27 µM; in the test on OVCAR-3 ovarian it was 34.4 µM; in the test with SF-539 CNS, 30 µM; in the test with ACHN renal it was 30.6 µM; with MOLT-4 leukemia, 94.2 µM; in the test on UACC-257 melanoma it was 33.3 µM.

As to `Cc1csc(NC(=NCCN2CCOCC2)Nc2nc(C)cs2)n1`, the TGI in the test on RXF 393 renal, in the test on OVCAR-3 ovarian, with SF-539 CNS, with NCI-H522 lung, in the test with MOLT-4 leukemia and in the test with HCT-116 colon was more than 100 µM throughout. Also, the TGI with UACC-257 melanoma and in the test with IGROV1 ovarian was more than 100 µM each time.

Regarding `CC1(C2CCC3(C)OC3C2)CO1` (centres undefined), the TGI with RXF 393 renal, in the test on OVCAR-3 ovarian, in the test on SF-539 CNS, in the test on NCI-H522 lung, in the test with ACHN renal and in the test on MOLT-4 leukemia was more than 100 µM each time. The TGI in the test with HCT-116 colon, in the test with UACC-257 melanoma and in the test with IGROV1 ovarian was more than 100 µM each time.

In the case of `CN(C)c1ccc(/C=C2\N=C(c3ccccc3)N(c3ccc4c(c3)Sc3cc(N5C(=O)/C(=C/c6ccc(N(C)C)cc6)N=C5c5ccccc5)ccc3N4)C2=O)cc1`, the TGI in the test with OVCAR-3 ovarian is 25.8 µM; with SF-539 CNS it was 32.8 µM; in the test with ACHN renal it was 30.4 µM; in the test on MOLT-4 leukemia it was more than 100 µM; in the test with BT-549 breast it was 66.6 µM; in the test on HCT-116 colon, 67.6 µM. Also, the TGI in the test with UACC-257 melanoma came out at 38.2 µM; with IGROV1 ovarian, 32 µM.

With `CC(=O)O[C@H]1CC[C@@]2(C)[C@H](CC[C@@H]3[C@@H]2CC[C@]2(C)[C@@H](c4ccc(=O)oc4)C[C@H]4O[C@]342)C1`, the TGI in the test with RXF 393 renal was 0.673 µM; in the test on OVCAR-3 ovarian it was 1.67 µM; in the test with SF-539 CNS it was 1.72 µM; in the test on NCI-H522 lung, 1.23 µM; in the test on MOLT-4 leukemia, 0.556 µM; in the test with HCT-116 colon, 4.63 µM. For the same compound, the TGI with UACC-257 melanoma turned out to be 6.89 µM; in the test with IGROV1 ovarian, 11.3 µM.

In the case of `CSc1ccc(/C=C2\N=C(c3ccccc3)N(/N=C/c3cc4cc(C)ccc4nc3Cl)C2=O)cc1`, the TGI with OVCAR-3 ovarian turned out to be 48.7 µM; in the test with SF-539 CNS, 43.3 µM; in the test with ACHN renal, 35.1 µM; in the test with MOLT-4 leukemia, 37.2 µM; in the test with BT-549 breast, 56.5 µM; in the test on HCT-116 colon, 33.2 µM. Moreover, the results for the TGI in the test on UACC-257 melanoma and with IGROV1 ovarian were 39.8 µM and 35 µM, respectively.
